Measurements published in publication PMC7405012, “Detection of Chaetomium globosum, Ch. cochliodes and Ch. rectangulare during the Diversity Tracking of Mycotoxin-Producing Chaetomium-like Isolates Obtained in Buildings in Finland” (Toxins, 2020).
In brackets after ≈: the same amount, converted by molar mass. Where two headings read alike, the source gives them in different places.

Key:
Ch. globosum MH 52 = assay: Resistance to biocides: ascospore germination; type: cell-based, Chaetomium globosum; settings: Chaetomium globosum, MH52; strain MH 52, indoor Ch. globosum; read-out: EC50
Protocol: (§1) The toxicity of biocides and chemicals towards the indoor Chaetomium-like isolates and the reference indoor strains of the genera Aspergillus, Paecilomyces, Penicillium and Trichoderma was assessed in parallel with the six parameters presented in the Supplementary Materials: (1) germ tube assay (Figure S3); (2) estimation of turbidity (Figure S4); (3) visual emission of fluorescence (excitation at 360 nm); (4) visual resporulation of conidia; (5) inhibition of glucose consumption; and (6) resazurin reduction. All assays were performed in malt extract broth (12 g L^−1 malt extract, 7.2 µmol mL^−1 glucose, pH 5.5; Scharlab, Barcelona, Spain) in 96-well microtiter plates as described for the ICP assay.
(§2) The assays measuring inhibition of germination of conidia were done with spore suspensions of 1–2 × 10^6 fungal spores mL−^1. The tests were performed in malt extract broth (Oxoid, Hampshire United Kingdom) 12 g in 1 L, pH 5.5, glucose 7.1 mmol L^−1, and performed on microtiter plates as described by Bencsik et al. for the ICP assay. The germ tube germination is visualized in Figure S3, and the tests estimating turbidity and emission of fluorescence provoked by the germinated and metabolically active conidia and C. globosum ascospores are visualized in Figures S4 and S5. Examples of the tests estimating fluorescence emission, turbidity and re-sporulation of conidia and ascospores are compared in Figure S5. The difference of the endpoints measured with the different assays was between […]. The resazurin reduction assays (Figure S6) were performed as described for the ICP assay, except that the microtiter plates were visually inspected for the change of the blue/violet color of resazurin (indicating inhibition of germination of the exposed conidia) to the […] (indicating metabolic activity and germination of the exposed conidia).
(§3) The formation of germ tubes was inspected by a phase-contrast microscope (Olympus CKX41, Tokyo, Japan; magnification 400×) and an image recording software (Cellsense® standard version 11.0.06, Olympus Soft Imaging Solutions GmbH, Münster, Germany, 2012) after 1 and 2 days of incubation at 28 °C. The EC50 corresponded to the inhibition of 50% (estimated as the concentration between EC0 and EC100) of the conidia compared to the ethanol control (the growth medium containing 1% of ethanol). The tests were run in triplicate and calibrated with triclosan (CAS: 3380-34-5; Sigma Chemical Co., St. Louis, MO, USA) giving a mean SD of ±<20%.

Ch. globosum C22/LM = assay: Resistance to biocides: ascospore germination; type: cell-based, Chaetomium globosum; settings: strain C22/LM, indoor Ch. globosum
Protocol: as §1, §2, §3

Ch. globosum MO9 = assay: Resistance to biocides: ascospore germination; type: cell-based, Chaetomium globosum; settings: strain MO9, indoor Ch. globosum
Protocol: as §1, §2, §3

Ch. globosum 2b/26 = assay: Resistance to biocides: ascospore germination; type: cell-based, Chaetomium globosum; settings: strain 2b/26, indoor Ch. globosum
Protocol: as §1, §2, §3

Ch. globosum RUK10 = assay: Resistance to biocides: ascospore germination; type: cell-based, Chaetomium globosum; settings: strain RUK10, indoor Ch. globosum
Protocol: as §1, §2, §3

Ch. cochliodes OT7b = assay: Resistance to biocides: ascospore germination; type: cell-based; settings: strain OT7b, indoor Ch. cochliodes; read-out: EC50
Protocol: as §1, §2, §3

Ch. rectangulare M015 = assay: Resistance to biocides: ascospore germination; type: cell-based; settings: strain M015, indoor Ch. rectangulare
Protocol: as §1, §2, §3

Ch. cochliodes OT7 = assay: Resistance to biocides: ascospore germination; type: cell-based; settings: strain OT7, indoor Ch. cochliodes; read-out: EC50
Protocol: as §1, §2, §3

[1] = test system: Aspergillus calidoustus MH4; assay: Resistance to biocides: conidial germination; type: cell-based; settings: strain MH4, indoor Aspergillus calidoustus; read-out: EC50
Protocol: as §1, §2, §3

[2] = test system: Aspergillus section Flavi 1/37; assay: Resistance to biocides: conidial germination; type: cell-based; settings: strain 1/37, indoor Aspergillus section Flavi
Protocol: as §1, §2, §3

[3] = test system: Aspergillus versicolor Gas/226; assay: Resistance to biocides: conidial germination; type: cell-based; settings: strain Gas/226, Aspergillus versicolor; read-out: EC50
Protocol: as §1, §2, §3

[4] = test system: Aspergillus section Nigri Asp33b; assay: Resistance to biocides: conidial germination; type: cell-based; settings: strain Asp33b, indoor Aspergillus section Nigri; read-out: EC50
Protocol: as §1, §2, §3

[5] = test system: Aspergillus section Nigri Asp 32; assay: Resistance to biocides: conidial germination; type: cell-based; settings: strain Asp 32, indoor Aspergillus section Nigri; read-out: EC50
Protocol: as §1, §2, §3

Penicillium sp. 5/skk = assay: Resistance to biocides: conidial germination; type: cell-based; settings: strain 5/skk, indoor Penicillium sp.
Protocol: as §1, §2, §3

[6] = test system: Indoor Trichoderma atroviride KIV10; assay: Resistance to biocides: conidial germination; type: cell-based; settings: strain KIV10, indoor Trichoderma atroviride
Protocol: as §1, §2, §3

[7] = test system: Aspergillus westerdijkiae AW/KL; assay: Resistance to biocides: conidial germination; type: cell-based; settings: strain AW/KL
Protocol: as §1, §2, §3

[8] = test system: Trichoderma citrinoviride SJ40; assay: Resistance to biocides: conidial germination; type: cell-based; settings: strain SJ40, indoor Trichoderma citrinoviride; read-out: EC50
Protocol: as §1, §2, §3

Penicillium sp. 35/skk = assay: Resistance to biocides: conidial germination; type: cell-based; settings: strain 35/skk, indoor Penicillium sp.
Protocol: as §1, §2, §3

[9] = test system: Trichoderma longibrachiatum THG; assay: Resistance to biocides: conidial germination; type: cell-based; settings: strain THG, indoor Trichoderma longibrachiatum; read-out: EC50
Protocol: as §1, §2, §3

[10] = test system: Aspergillus westerdijkiae PP2; assay: Resistance to biocides: conidial germination; type: cell-based; settings: strain PP2, Aspergillus westerdijkiae
Protocol: as §1, §2, §3

Penicillium sp. 20b/skk = assay: Resistance to biocides: conidial germination; type: cell-based; settings: strain 20b/skk, indoor Penicillium sp.
Protocol: as §1, §2, §3

Penicillium sp. Vaip/skk = assay: Resistance to biocides: conidial germination; type: cell-based; settings: strain Vaip/skk, indoor Penicillium sp.
Protocol: as §1, §2, §3

[11] = test system: Indoor Trichoderma atroviride H1/226; assay: Resistance to biocides: conidial germination; type: cell-based; settings: strain H1/226, indoor Trichoderma atroviride; read-out: EC50
Protocol: as §1, §2, §3

[12] = test system: Paecilomyces sp. Pec1/his; assay: Resistance to biocides: conidial germination; type: cell-based; settings: strain Pec1/his, indoor Paecilomyces sp.; read-out: EC50
Protocol: as §1, §2, §3

[13] = test system: Indoor Trichoderma atroviride Tri335; assay: Resistance to biocides: conidial germination; type: cell-based; settings: strain Tri335, indoor Trichoderma atroviride; read-out: EC50
Protocol: as §1, §2, §3

[14] = Chaetomium globosum, read-out: EC50

O=BOB(O)OB(O)OB=O [Borax, sodium tetraborate]
EC50 (Ch. globosum MH 52): 5000 µg/mL | EC50 (Ch. globosum C22/LM; [14]): > 5000 µg/mL | EC50 (Ch. globosum MO9; [14]): > 5000 µg/mL | EC50 (Ch. globosum 2b/26; [14]): > 5000 µg/mL | EC50 (Ch. globosum RUK10; [14]): 5000 µg/mL | EC50 (Ch. cochliodes OT7b): 750 µg/mL | EC50 (Ch. rectangulare M015; read-out: EC50): 5000 µg/mL | EC50 (Ch. cochliodes OT7): 750 µg/mL | EC50 [1]: 5000 µg/mL | EC50 ([2]; FLAVI1/37, read-out: EC50): 5000 µg/mL | EC50 [3]: 5000 µg/mL | EC50 [4]: ≥ 5000 µg/mL | EC50 [5]: ≥ 5000 µg/mL | EC50 (Penicillium sp. 5/skk; SP.5/SKK, read-out: EC50): 2500 µg/mL | EC50 ([6]; read-out: EC50): 2500 µg/mL | EC50 ([7]; read-out: EC50): 2500 µg/mL | EC50 [8]: 1200 µg/mL | EC50 (Penicillium sp. 35/skk; SP.35/SKK, read-out: EC50): 5000 µg/mL | EC50 [9]: 1200 µg/mL | EC50 ([10]; read-out: EC50): 5000 µg/mL | EC50 (Penicillium sp. 20b/skk; SP.20B/SKK, read-out: EC50): > 5000 µg/mL | EC50 (Penicillium sp. Vaip/skk; read-out: EC50): > 5000 µg/mL | EC50 [11]: 1200 µg/mL | EC50 [12]: ≥ 5000 µg/mL | EC50 [13]: 2500 µg/mL

NCl [Chloramine, chloramine]
EC50 (Ch. globosum C22/LM): 2500 µg/mL (≈ 48.6 mM) | EC50 (Ch. globosum MO9): 2500 µg/mL (≈ 48.6 mM) | EC50 (Ch. globosum 2b/26): 2500 µg/mL (≈ 48.6 mM) | EC50 (Ch. globosum RUK10): 2500 µg/mL (≈ 48.6 mM) | EC50 (Ch. rectangulare M015): 1200 µg/mL (≈ 23.3 mM) | EC50 [2]: 600 µg/mL (≈ 11.7 mM) | EC50 (Penicillium sp. 5/skk): 600 µg/mL (≈ 11.7 mM) | EC50 [6]: 2400 µg/mL (≈ 46.6 mM) | EC50 [7]: 600 µg/mL (≈ 11.7 mM) | EC50 (Penicillium sp. 35/skk): 600 µg/mL (≈ 11.7 mM) | EC50 [10]: 600 µg/mL (≈ 11.7 mM) | EC50 (Penicillium sp. 20b/skk): 600 µg/mL (≈ 11.7 mM) | EC50 (Penicillium sp. Vaip/skk): 600 µg/mL (≈ 11.7 mM)
